Experimental data published in patent publication US20140371237A1, “p19Arf, HMGA2 and MDM2 For Use in the Diagnosis and Treatment of Aberrant Cell Growth” (University of Bremen, priority 2010, published 2014).

Legend:
Assay type in all cases: cell-based, human
[1] = system: explants of fibroids and matching myometrium; assay: Treatment of explants of fibroids and matching myometrium with RITA, qRT-PCR; conditions: explants in short term culture, RITA 10 μM, 72 h
Experimental: For the experiments explants from a leiomyoma with a clonal complex chromosomal rearrangement involving chromosome 10 along with matching myometrium were taken during surgery and immediately transferred into sterile Hank's solution. For treatment with RITA (Biomol, Hamburg, Germany) tissue samples were minced into small pieces of approximately 0.5 cm diameter and incubated in medium 199 supplemented with 20% FCS and RITA (10 μM) for 72 h. As controls tissue explants were incubated in medium 199 supplemented with 20% FCS without RITA for 72 h. Relative quantification of transcription levels was carried out by real-time PCR analyses using the Applied Biosystems 7300 real-time PCR system (Applied Biosystems, Darmstadt, Germany). Commercially available gene expression assays (Applied Biosystems, Darmstadt, Germany) were used for quantification of mRNA of human BAX (Hs00180269_m1), p21 (Hs99999142), β-Gal (Hs01035162) and Ki67 (Hs00606991_m1). HPRT served as endogenous control. All qRT-PCR experiments were done in triplicate.

leiomyoma cells [2] = assay: Treatment of leiomyoma cells with RITA, qRT-PCR; conditions: cells of fibroids, 10 μM RITA, 72 h
Experimental: For treatment with RITA (Biomol, Hamburg, Germany) cells were plated in Leighton-tubes at a density of 200,000 on 10 mm×50 mm cover slips 24 h before incubation with RITA. Cells were treated with 1 μM and 10 μM RITA for 72 h. As controls cells were cultured in medium 199 supplemented with 20% FCS without RITA for 72 h. Relative quantification of transcription levels was carried out by real-time PCR analyses using the Applied Biosystems 7300 real-time PCR system (Applied Biosystems, Darmstadt, Germany). Commercially available gene expression assays (Applied Biosystems, Darmstadt, Germany) were used for quantification of mRNA of human BAX (Hs00180269_m1), p21 (Hs99999142), β-Gal (Hs01035162) and Ki67 (Hs00606991_m1). HPRT served as endogenous control. All qRT-PCR experiments were done in triplicate.

leiomyoma cells [3] = assay: Treatment of leiomyoma cells with Tenovin-1, qRT-PCR of p21 and BAX
Experimental: For treatment with Tenovin-1 (Biomol, Hamburg, Germany) cells were plated in Leighton-tubes at a density of 200,000 on 10 mm×50 mm cover slips 24 h before incubation with Tenovin-1. Cells were treated with 3 μM and 10 μM Tenovin-1 for 24 and for 72 h, respectively. As controls cells were cultured in medium 199 supplemented with 20% FCS without Tenovin-1 for 24 and for 72 h, respectively.

| SMILES | expression of BAX [1] | expression of p21 [1] | expression of BAX (leiomyoma cells [2]) | expression of Ki-67 (leiomyoma cells [2]) | expression of p21 (leiomyoma cells [2]) | expression of β-galactosidase (leiomyoma cells [2]) | expression of p21 (leiomyoma cells [3]; 3 μM and 10 μM, 24 h and 72 h, p<0.01 with both concentrations) | expression of BAX (leiomyoma cells [3]; significant at 24 h with 3 μM and 10 μM (p<0.001) and 72 h with 10 μM (p<0.01)) |
| --- | --- | --- | --- | --- | --- | --- | --- | --- |
| OCc1ccc(-c2ccc(-c3ccc(CO)s3)o2)s1 [RITA, 2,5-bis-(5-Hydroxymethyl-2-thienyl)-furan] | significant increase | significant increase | significant increase | decrease | significant increase | significant increase |  |  |
| CC(=O)Nc1ccc(NC(=S)NC(=O)c2ccc(C(C)(C)C)cc2)cc1 [Tenovin-1] |  |  |  |  |  |  | significant increase | significant increase |
